# In patent US12102690B2, “Preparation method and application of biomimetic nano-protectant for detoxifying dox-induced cardiac and systemic toxicity” (priority 2021, dated 2024):
# Legend:
# [1] = tested on: TC1 cells subcutaneous transplanted tumor model of cervical cancer; experiment: Tumor inhibition in subcutaneous transplanted tumor model of cervical cancer; format: in vivo; details: Day24, TC1 tumor-bearing B6 rats
# Procedure: (§1) When the tumor volume reached 70-80 mm^3, the NPs+DOX group, the DOX group alone and the NC group were performed respectively; and then changes in size of tumor tissues and the changes in weight of B6 rats were observed and measured from Day0 to Day24. […] However, the volume of tumor tissues in the NC group increases to about 200 times of the initial volume on Day24 (FIG. 20A). […] Meanwhile, due to the rapid growth of tumor tissues in the NC group, the weight of NC group is increased greatly (FIG. 20B).
# [2] = Change in weight of tumor-bearing B6 rats; format: in vivo; details: Day0 to Day24, TC1 tumor-bearing B6 rats
# Procedure: as §1
# H9C2 myocardial cells = experiment: Survival rate of myocardial cells with CCK-8 reagent after IC50 dose of DOX; format: cell-based, rat; details: DOX group alone, 24 h
# Procedure: Different doses of biomimetic nano-protectant DNA&Pro@RBCM-PCM/KALA were added into H9C2 myocardial cells for incubation for 4 h; then, IC50 (50% Inhibitory Concentration) dose of DOX was added; the survival rate of H9C2 myocardial cells was detected with a CCK-8 reagent after 24 h; and a DOX group alone (with a DNA concentration of 0) and a treatment-free NC group (Negative Control) were set as experimental control groups. […] To further describe the protection mechanism of the biomimetic nano-protectant PCM/KALA-RBCM@DNA&Pro, in the invention, a dose of the biomimetic nano-protectant PCM/KALA-RBCM@DNA&Pr (NPs) is determined for protecting the damage of the IC50 dose of DOX to the H9C2 myocardial cells, while three important apoptosis pathway signal molecules (including Bax, Bcl2 and Caspase-3) are selected for Western Blot (WB) test (see FIG. 12).
structure (smiles),measurement,setting,value
"COc1cccc2c1C(=O)c1c(O)c3c(c(O)c1C2=O)C[C@@](O)(C(=O)CO)C[C@@H]3O[C@H]1C[C@H](N)[C@H](O)[C@H](C)O1 [DOX, doxorubicin]",tumor volume at the end of Day24 relative to the initial volume,[1],about 15 times of the initial volume
same,change in weight of B6 rats,[2],sudden loss of weight
same,survival rate of H9C2 cells,H9C2 myocardial cells,about 50%
